Measurements published in PMC10648349, “Aromatic Diboronic Acids as Effective KPC/AmpC Inhibitors” (Molecules, 2023).
Converted amounts (≈) assume the structure as drawn.

Experiments:
[1] = test system: C. guilliermondii IBA 155; test: antifungal activity (disc-diffusion, MIC, MFC); assay type: cell-based, Candida guilliermondii; details: Meyerozyma guilliermondii, IBA155; for zone of inhibition at 0.4 mg/disc: 0.4 mg per disc, 9 mm disc (fluconazole 0.025 mg, 6 mm disc), - no zone, read-out: Diameter of inhibition zone; for MIC: fluconazole by Etest
How it was run: (§1)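 Diboronic acids (DMSO solutions) at 0.4 mg per disc were used for diffusion testing. Dilution endpoints were MIC, MBC and MFC, per CLSI and EUCAST recommendations.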

B. subtilis ATCC 6633 = test: direct antimicrobial activity (disc-diffusion); assay type: cell-based; details: Bacillus subtilis, ATCC6633; 0.4 mg per disc, 9 mm disc (linezolid 0.03 mg, 6 mm disc); - no zone; read-out: Diameter of inhibition zone
How it was run: as §1

[2] = test system: K. pneumoniae ATCC BAA 1705 KPC-2-positive; test: combination disc test CDT-KPC; assay type: cell-based; details: Klebsiella pneumoniae, BAA1705; agent 0.3 mg per disc; read-out: Diameter of inhibition zone, MEM-10 disc with agent
[3] = MTT-based viability assay; assay type: cell-based; details: human, MRC-5 human fibroblasts, 72 h; for viability at 72 h, 12.5 mg/L / viability at 72 h, 25 mg/L / viability at 72 h, 50 mg/L: read-out: Viability of MRC-5 cells (% of viable cells ± SD)
How it was run: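 MRC-5 human fibroblasts grown in MEME with 10% FBS at 37 °C, 5% CO2, tested by MTT with absorbance read at 570 nm. Viability given as percent of untreated control cells, in triplicate.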

[4] = test system: S. epidermidis ATCC 12228; test: direct antimicrobial activity (disc-diffusion, MIC, MBC); assay type: cell-based; details: Staphylococcus epidermidis, ATCC12228; for zone of inhibition at 0.4 mg/disc: 0.4 mg per disc, 9 mm disc (linezolid 0.03 mg, 6 mm disc), - no zone, read-out: Diameter of inhibition zone
How it was run: as §1

[5] = test system: S. aureus ATCC 43300 MRSA; test: as above; assay type: cell-based; details: Staphylococcus aureus; for zone of inhibition at 0.4 mg/disc: 0.4 mg per disc, 9 mm disc (linezolid 0.03 mg, 6 mm disc), - no zone, read-out: Diameter of inhibition zone
How it was run: as §1

E. faecium ATCC 6057 = test: as above; assay type: cell-based; details: Enterococcus faecium, ATCC6057; for zone of inhibition at 0.4 mg/disc: 0.4 mg per disc, 9 mm disc (linezolid 0.03 mg, 6 mm disc), - no zone, read-out: Diameter of inhibition zone
How it was run: as §1

E. faecalis ATCC 29212 = test: as above; assay type: cell-based; details: Enterococcus faecalis, ATCC29212; for zone of inhibition at 0.4 mg/disc: 0.4 mg per disc, 9 mm disc (linezolid 0.03 mg, 6 mm disc), - no zone, read-out: Diameter of inhibition zone
How it was run: as §1

S. aureus ATCC 6538P = test: as above; assay type: cell-based; details: Staphylococcus aureus, ATCC6538P; for zone of inhibition at 0.4 mg/disc: 0.4 mg per disc, 9 mm disc (linezolid 0.03 mg, 6 mm disc), - no zone, read-out: Diameter of inhibition zone
How it was run: as §1

C. tropicalis IBA 171 = test: antifungal activity (disc-diffusion, MIC, MFC); assay type: cell-based; details: Candida tropicalis, IBA171; for MIC: fluconazole by Etest
How it was run: as §1

C. tropicalis ATCC 750 = test: antifungal activity (disc-diffusion, MIC, MFC); assay type: cell-based; details: Candida tropicalis, ATCC750; for zone of inhibition at 0.4 mg/disc: 0.4 mg per disc, 9 mm disc (fluconazole 0.025 mg, 6 mm disc), - no zone, read-out: Diameter of inhibition zone; for MIC: fluconazole by Etest
How it was run: as §1

C. albicans ATCC 90028 = test: antifungal activity (disc-diffusion, MIC, MFC); assay type: cell-based; details: Candida albicans, ATCC90028; for MIC: fluconazole by Etest
How it was run: as §1

S. cerevisiae ATCC 9763 = test: antifungal activity (disc-diffusion, MIC, MFC); assay type: cell-based; details: Saccharomyces cerevisiae, ATCC9763; for zone of inhibition at 0.4 mg/disc: 0.4 mg per disc, 9 mm disc (fluconazole 0.025 mg, 6 mm disc), - no zone, read-out: Diameter of inhibition zone; for MIC: fluconazole by Etest
How it was run: as §1

[6] = test system: P. aeruginosa MUW 700 cAmpC-positive; test: combination disc test CDT-AmpC; assay type: cell-based; details: Pseudomonas aeruginosa; agent 0.3 mg per disc; read-out: Diameter of inhibition zone, CAZ-30 disc with agent
[7] = test system: C. parapsilosis ATCC 22019; test: antifungal activity (disc-diffusion, MIC, MFC); assay type: cell-based, Candida parapsilosis; details: Lodderomyces parapsilosis, ATCC22019; for zone of inhibition at 0.4 mg/disc: 0.4 mg per disc, 9 mm disc (fluconazole 0.025 mg, 6 mm disc), - no zone, read-out: Diameter of inhibition zone; for MIC: fluconazole by Etest
How it was run: as §1

C. krusei ATCC 6258 = test: antifungal activity (disc-diffusion, MIC, MFC); assay type: cell-based, Candida krusei; details: Pichia kudriavzevii, ATCC6258; for zone of inhibition at 0.4 mg/disc: 0.4 mg per disc, 9 mm disc (fluconazole 0.025 mg, 6 mm disc), - no zone, read-out: Diameter of inhibition zone; for MIC: fluconazole by Etest
How it was run: as §1

[8] = test system: E. coli 77 CMY-2-positive; test: combination disc test CDT-AmpC; assay type: cell-based; details: Escherichia coli; agent 0.3 mg per disc; read-out: Diameter of inhibition zone, CAZ-30 disc with agent

MIC [1]	MIC [4]	MIC [5]	MIC (E. faecium ATCC 6057)	MIC (E. faecalis ATCC 29212)	MIC (S. aureus ATCC 6538P)	MIC (C. tropicalis IBA 171)	MIC (C. tropicalis ATCC 750)	MIC (C. albicans ATCC 90028)	MIC (S. cerevisiae ATCC 9763)	SMILES	zone of inhibition at 0.4 mg/disc (B. subtilis ATCC 6633)	zone of inhibition at 300 µg/disc [2]	viability at 72 h, 12.5 mg/L [3]	viability at 72 h, 25 mg/L [3]	viability at 72 h, 50 mg/L [3]	zone of inhibition at 0.4 mg/disc [4]	zone of inhibition at 0.4 mg/disc [5]	zone of inhibition at 0.4 mg/disc (E. faecium ATCC 6057)	zone of inhibition at 0.4 mg/disc (S. aureus ATCC 6538P)	zone of inhibition at 300 µg/disc [6]	other results
25 µg/mL (≈ 162 µM)	12.5 µg/mL (≈ 81.2 µM)	25 µg/mL (≈ 162 µM)	12.5 µg/mL (≈ 81.2 µM)	25 µg/mL (≈ 162 µM)	12.5 µg/mL (≈ 81.2 µM)	12.5 µg/mL (≈ 81.2 µM)	50 µg/mL (≈ 325 µM)	50 µg/mL (≈ 325 µM)	12.5 µg/mL (≈ 81.2 µM)	OB(O)c1ccccc1S [7c, 2-mercaptophenylboronic acid]	26 mm	13 mm	56.4 ± 3%	6.6 ± 5.1%	0%	30 mm	22 mm	25 mm	23 mm	11 mm	MFC [1]: 200 µg/mL (≈ 1300 µM); zone of inhibition at 0.4 mg/disc [1]: 40 mm; viability at 72 h ([3]; 12.5, 25 and 50 mg/L): 0 to 56.4%; zone of inhibition at 0.4 mg/disc (E. faecalis ATCC 29212): 23 mm; MFC (C. tropicalis IBA 171): 100 µg/mL (≈ 649 µM); MFC (C. tropicalis ATCC 750): 200 µg/mL (≈ 1300 µM); zone of inhibition at 0.4 mg/disc (C. tropicalis ATCC 750): 20 mm; MFC (C. albicans ATCC 90028): 200 µg/mL (≈ 1300 µM); zone of inhibition at 0.4 mg/disc (C. albicans ATCC 90028; 0.4 mg per disc, 9 mm disc (fluconazole 0.025 mg, 6 mm disc), - no zone, read-out: Diameter of inhibition zone): 33 mm; MFC (S. cerevisiae ATCC 9763): 25 µg/mL (≈ 162 µM); zone of inhibition at 0.4 mg/disc (S. cerevisiae ATCC 9763): 34 mm; zone of inhibition at 0.4 mg/disc [7]: 29 mm; MIC [7]: 50 µg/mL (≈ 325 µM); zone of inhibition at 0.4 mg/disc (C. krusei ATCC 6258): 16 mm; MIC (C. krusei ATCC 6258): 50 µg/mL (≈ 325 µM); zone of inhibition at 300 µg/disc [8]: 16 mm
> 400 µg/mL	100 µg/mL (≈ 544 µM)	400 µg/mL (≈ 2180 µM)	400 µg/mL (≈ 2180 µM)	400 µg/mL (≈ 2180 µM)	200 µg/mL (≈ 1090 µM)	50 µg/mL (≈ 272 µM)	50 µg/mL (≈ 272 µM)	100 µg/mL (≈ 544 µM)	100 µg/mL (≈ 544 µM)	OB(O)c1ccc(F)cc1B(O)O [3c]	18 mm	12 mm	97.1 ± 6.9%	106 ± 4.5%	82.3 ± 12.9%	24 mm	11 mm	12 mm	13 mm	20 mm	MIC [7]: 100 µg/mL (≈ 544 µM); MIC (C. krusei ATCC 6258): 200 µg/mL (≈ 1090 µM); zone of inhibition at 300 µg/disc [8]: 20 mm

SMILES	MIC [1]	MIC [4]	MIC [5]	MIC (E. faecium ATCC 6057)	MIC (E. faecalis ATCC 29212)	MIC (S. aureus ATCC 6538P)	MIC (C. tropicalis IBA 171)	MIC (C. tropicalis ATCC 750)	MIC (C. albicans ATCC 90028)	MIC (S. cerevisiae ATCC 9763)	zone of inhibition at 0.4 mg/disc (B. subtilis ATCC 6633)	zone of inhibition at 300 µg/disc [2]	viability at 72 h, 12.5 mg/L [3]	viability at 72 h, 25 mg/L [3]	viability at 72 h, 50 mg/L [3]	zone of inhibition at 0.4 mg/disc [4]	zone of inhibition at 0.4 mg/disc [5]	zone of inhibition at 0.4 mg/disc (E. faecium ATCC 6057)	zone of inhibition at 0.4 mg/disc (S. aureus ATCC 6538P)	zone of inhibition at 300 µg/disc [6]	other results
OB(O)c1ccc(C(F)(F)F)cc1B(O)O [3e]	3.12 µg/mL (≈ 13.3 µM)	200 µg/mL (≈ 856 µM)	400 µg/mL (≈ 1710 µM)	200 µg/mL (≈ 856 µM)	200 µg/mL (≈ 856 µM)	100 µg/mL (≈ 428 µM)	6.25 µg/mL (≈ 26.7 µM)	12.5 µg/mL (≈ 53.5 µM)	6.25 µg/mL (≈ 26.7 µM)	50 µg/mL (≈ 214 µM)	22 mm	6 mm	98.8 ± 25.6%	92.9 ± 2.7%	64.4 ± 0.4%	21 mm	15 mm	13 mm	17 mm	17 mm	MFC [1]: 400 µg/mL (≈ 1710 µM); zone of inhibition at 0.4 mg/disc [1]: 40 mm; zone of inhibition at 0.4 mg/disc (E. faecalis ATCC 29212): 14 mm; MFC (C. tropicalis IBA 171): 400 µg/mL (≈ 1710 µM); zone of inhibition at 0.4 mg/disc (C. tropicalis ATCC 750): 28 mm; MFC (C. albicans ATCC 90028): 400 µg/mL (≈ 1710 µM); zone of inhibition at 0.4 mg/disc (S. cerevisiae ATCC 9763): 23 mm; zone of inhibition at 0.4 mg/disc [7]: 30 mm; MIC [7]: 12.5 µg/mL (≈ 53.5 µM); zone of inhibition at 0.4 mg/disc (C. krusei ATCC 6258): 23 mm; MIC (C. krusei ATCC 6258): 25 µg/mL (≈ 107 µM); zone of inhibition at 300 µg/disc [8]: 17 mm
